# ChEMBL document CHEMBL3885881, “DrugMatrix”
# Organism: Rattus norvegicus
# Experiment: DrugMatrix - Regimen: Daily Repeat
# Assay type: toxicity, organism-based, Sprague-Dawley
# Set-up: regimen Daily Repeat, gender Male, age 6-8 weeks
# Conditions: in vivo, po, route oral GAVAGE, vehicle .5 % CMC; for BASOPHIL / EOSINOPHIL / ERYTHROCYTE COUNT / HEMATOCRIT / HEMOGLOBIN / LEUKOCYTE COUNT / LYMPHOCYTE / MEAN CORPUSCULAR HEMOGLOBIN / MEAN CORPUSCULAR HEMOGLOBIN CONCENTRATION / MEAN CORPUSCULAR VOLUME / MONOCYTE / NEUTROPHIL / PLATELET COUNT: tissue Blood; for ALANINE AMINOTRANSFERASE / ALBUMIN / ALKALINE PHOSPHATASE / ASPARTATE AMINOTRANSFERASE / BLOOD UREA NITROGEN / CHLORIDE / CHOLESTEROL / CREATINE PHOSPHOKINASE / CREATININE / GLUCOSE / PHOSPHORUS / POTASSIUM / SODIUM / TOTAL PROTEIN: tissue Plasma
# [1] = 0 mg/kg, 72 h, dose level Control, time 3 day
# [2] = 0 mg/kg, 120 h, dose level Control, time 5 day
# [3] = 28 mg/kg, 72 h, dose level Low, time 3 day
# [4] = 28 mg/kg, 120 h, dose level Low, time 5 day
# [5] = 2000 mg/kg, 72 h, dose level High, time 3 day
# [6] = 2000 mg/kg, 120 h, dose level High, time 5 day
compound,measurement,setting,value
CCN1CCN(c2cc3c(cc2F)c(=O)c(C(=O)O)cn3C2CC2)CC1 [ENROFLOXACIN],BASOPHIL,[1],0%
same,EOSINOPHIL,[1],0.4%
same,ERYTHROCYTE COUNT,[1],6.43 x10E6/uL
same,HEMATOCRIT,[1],37.36%
same,HEMOGLOBIN,[1],13.98 G/DL
same,LEUKOCYTE COUNT,[1],13 x10E3/uL
same,LYMPHOCYTE,[1],81.4%
same,MEAN CORPUSCULAR HEMOGLOBIN,[1],21.9 pg
same,MEAN CORPUSCULAR HEMOGLOBIN CONCENTRATION,[1],37.4 G/DL
same,MEAN CORPUSCULAR VOLUME,[1],58.52 fL
same,MONOCYTE,[1],0.4%
same,NEUTROPHIL,[1],18%
same,PLATELET COUNT,[1],1386 x10E3/uL
same,ALANINE AMINOTRANSFERASE,[1],39.33 u/L
same,ALBUMIN,[1],3.57 G/DL
same,ALKALINE PHOSPHATASE,[1],283.83 u/L
same,ASPARTATE AMINOTRANSFERASE,[1],69.5 u/L
same,BLOOD UREA NITROGEN,[1],14.83 mg/dL
same,CHLORIDE,[1],107.33 MEQ/L
same,CHOLESTEROL,[1],75.17 mg/dL
same,CREATINE PHOSPHOKINASE,[1],107.67 u/L
same,CREATININE,[1],0.48 mg/dL
same,GLUCOSE,[1],172.5 mg/dL
same,PHOSPHORUS,[1],10.48 mg/dL
same,POTASSIUM,[1],6.9 MEQ/L
same,SODIUM,[1],152.33 MEQ/L
same,TOTAL PROTEIN,[1],5.9 G/DL
same,BASOPHIL,[2],0%
same,EOSINOPHIL,[2],0.4%
same,ERYTHROCYTE COUNT,[2],6.96 x10E6/uL
same,HEMATOCRIT,[2],41.12%
same,HEMOGLOBIN,[2],15.24 G/DL
same,LEUKOCYTE COUNT,[2],11.06 x10E3/uL
same,LYMPHOCYTE,[2],88.6%
same,MEAN CORPUSCULAR HEMOGLOBIN,[2],21.96 pg
same,MEAN CORPUSCULAR HEMOGLOBIN CONCENTRATION,[2],37.1 G/DL
same,MEAN CORPUSCULAR VOLUME,[2],59.12 fL
same,MONOCYTE,[2],0.2%
same,NEUTROPHIL,[2],10.8%
same,PLATELET COUNT,[2],1155.8 x10E3/uL
same,ALANINE AMINOTRANSFERASE,[2],36.33 u/L
same,ALBUMIN,[2],3.72 G/DL
same,ALKALINE PHOSPHATASE,[2],340.33 u/L
same,ASPARTATE AMINOTRANSFERASE,[2],68.33 u/L
same,BLOOD UREA NITROGEN,[2],15 mg/dL
same,CHLORIDE,[2],108.17 MEQ/L
same,CHOLESTEROL,[2],74.67 mg/dL
same,CREATINE PHOSPHOKINASE,[2],110.67 u/L
same,CREATININE,[2],0.47 mg/dL
same,GLUCOSE,[2],171.33 mg/dL
same,PHOSPHORUS,[2],10.05 mg/dL
same,POTASSIUM,[2],6.7 MEQ/L
same,SODIUM,[2],155.5 MEQ/L
same,TOTAL PROTEIN,[2],6.33 G/DL
same,BASOPHIL,[3],0%
same,EOSINOPHIL,[3],0.33%
same,ERYTHROCYTE COUNT,[3],6.63 x10E6/uL
same,HEMATOCRIT,[3],40.9%
same,HEMOGLOBIN,[3],15.27 G/DL
same,LEUKOCYTE COUNT,[3],15.3 x10E3/uL
same,LYMPHOCYTE,[3],87.67%
same,MEAN CORPUSCULAR HEMOGLOBIN,[3],23.03 pg
same,MEAN CORPUSCULAR HEMOGLOBIN CONCENTRATION,[3],37.33 G/DL
same,MEAN CORPUSCULAR VOLUME,[3],61.73 fL
same,MONOCYTE,[3],0.33%
same,NEUTROPHIL,[3],11.67%
same,PLATELET COUNT,[3],1320.33 x10E3/uL
same,ALANINE AMINOTRANSFERASE,[3],35.67 u/L
same,ALBUMIN,[3],3.53 G/DL
same,ALKALINE PHOSPHATASE,[3],256 u/L
same,ASPARTATE AMINOTRANSFERASE,[3],57 u/L
same,BLOOD UREA NITROGEN,[3],14 mg/dL
same,CHLORIDE,[3],106.67 MEQ/L
same,CHOLESTEROL,[3],68.67 mg/dL
same,CREATINE PHOSPHOKINASE,[3],123 u/L
same,CREATININE,[3],0.5 mg/dL
same,GLUCOSE,[3],170 mg/dL
same,PHOSPHORUS,[3],11.27 mg/dL
same,POTASSIUM,[3],6.83 MEQ/L
same,SODIUM,[3],151.67 MEQ/L
same,TOTAL PROTEIN,[3],5.93 G/DL
same,BASOPHIL,[4],0%
same,EOSINOPHIL,[4],0.67%
same,ERYTHROCYTE COUNT,[4],7.38 x10E6/uL
same,HEMATOCRIT,[4],43.67%
same,HEMOGLOBIN,[4],15.73 G/DL
same,LEUKOCYTE COUNT,[4],15.77 x10E3/uL
same,LYMPHOCYTE,[4],91%
same,MEAN CORPUSCULAR HEMOGLOBIN,[4],21.23 pg
same,MEAN CORPUSCULAR HEMOGLOBIN CONCENTRATION,[4],35.97 G/DL
same,MEAN CORPUSCULAR VOLUME,[4],58.97 fL
same,MONOCYTE,[4],0%
same,NEUTROPHIL,[4],8.33%
same,PLATELET COUNT,[4],1186 x10E3/uL
same,ALANINE AMINOTRANSFERASE,[4],39 u/L
same,ALBUMIN,[4],3.77 G/DL
same,ALKALINE PHOSPHATASE,[4],351 u/L
same,ASPARTATE AMINOTRANSFERASE,[4],67.67 u/L
same,BLOOD UREA NITROGEN,[4],13.67 mg/dL
same,CHLORIDE,[4],115 MEQ/L
same,CHOLESTEROL,[4],67.33 mg/dL
same,CREATINE PHOSPHOKINASE,[4],110 u/L
same,CREATININE,[4],0.6 mg/dL
same,GLUCOSE,[4],194.33 mg/dL
same,PHOSPHORUS,[4],10 mg/dL
same,POTASSIUM,[4],6.77 MEQ/L
same,SODIUM,[4],161.67 MEQ/L
same,TOTAL PROTEIN,[4],6.37 G/DL
same,BASOPHIL,[5],0%
same,EOSINOPHIL,[5],0%
same,ERYTHROCYTE COUNT,[5],6.71 x10E6/uL
same,HEMATOCRIT,[5],40.2%
same,HEMOGLOBIN,[5],15 G/DL
same,LEUKOCYTE COUNT,[5],9.93 x10E3/uL
same,LYMPHOCYTE,[5],94%
same,MEAN CORPUSCULAR HEMOGLOBIN,[5],22.37 pg
same,MEAN CORPUSCULAR HEMOGLOBIN CONCENTRATION,[5],37.33 G/DL
same,MEAN CORPUSCULAR VOLUME,[5],59.87 fL
same,MONOCYTE,[5],0.33%
same,NEUTROPHIL,[5],5.67%
same,PLATELET COUNT,[5],1314.33 x10E3/uL
same,ALANINE AMINOTRANSFERASE,[5],34 u/L
same,ALBUMIN,[5],3.4 G/DL
same,ALKALINE PHOSPHATASE,[5],233.33 u/L
same,ASPARTATE AMINOTRANSFERASE,[5],47.33 u/L
same,BLOOD UREA NITROGEN,[5],13.33 mg/dL
same,CHLORIDE,[5],107.67 MEQ/L
same,CHOLESTEROL,[5],72.67 mg/dL
same,CREATINE PHOSPHOKINASE,[5],92.33 u/L
same,CREATININE,[5],0.67 mg/dL
same,GLUCOSE,[5],183.33 mg/dL
same,PHOSPHORUS,[5],11.5 mg/dL
same,POTASSIUM,[5],7.2 MEQ/L
same,SODIUM,[5],152.67 MEQ/L
same,TOTAL PROTEIN,[5],5.53 G/DL
same,BASOPHIL,[6],0%
same,EOSINOPHIL,[6],0%
same,ERYTHROCYTE COUNT,[6],7.19 x10E6/uL
same,HEMATOCRIT,[6],42.1%
same,HEMOGLOBIN,[6],14.8 G/DL
same,LEUKOCYTE COUNT,[6],14.2 x10E3/uL
same,LYMPHOCYTE,[6],97.67%
same,MEAN CORPUSCULAR HEMOGLOBIN,[6],20.57 pg
same,MEAN CORPUSCULAR HEMOGLOBIN CONCENTRATION,[6],35.17 G/DL
same,MEAN CORPUSCULAR VOLUME,[6],58.63 fL
same,MONOCYTE,[6],0%
same,NEUTROPHIL,[6],2.33%
same,PLATELET COUNT,[6],1312.33 x10E3/uL
same,ALANINE AMINOTRANSFERASE,[6],39 u/L
same,ALBUMIN,[6],3.43 G/DL
same,ALKALINE PHOSPHATASE,[6],266 u/L
same,ASPARTATE AMINOTRANSFERASE,[6],50 u/L
same,BLOOD UREA NITROGEN,[6],11.67 mg/dL
same,CHLORIDE,[6],104 MEQ/L
same,CHOLESTEROL,[6],56 mg/dL
same,CREATINE PHOSPHOKINASE,[6],95.33 u/L
same,CREATININE,[6],0.6 mg/dL
same,GLUCOSE,[6],152.67 mg/dL
same,PHOSPHORUS,[6],11.4 mg/dL
same,POTASSIUM,[6],6.03 MEQ/L
same,SODIUM,[6],150.67 MEQ/L
same,TOTAL PROTEIN,[6],5.53 G/DL
